Measurements reported in the supplement of paper PMC10307832.

Assays:
Assay in all cases: relative viability (nuclei count vs DMSO), 5 days (fraction); higher = more cells survive
NCI-H1975 = system: NCI-H1975
How it was run: (§1)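 Dosing by pin tool came one day after lung cancer cell lines were seeded in 1536-well plates, using either one drug or a fixed anchor-drug dose plus five library-drug doses (not always all listed) in √10 steps. After 5 days, nuclei were counted on 4× images. Relative viability is treated-well nuclei count divided by vehicle-well nuclei count, and values are medians of duplicate plates.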

SW 900 = system: SW 900
How it was run: as §1

LU99A = system: LU99A
How it was run: as §1

HARA = system: HARA
How it was run: as §1

HCC-827 = system: HCC-827
How it was run: as §1

HCC-44 = system: HCC-44
How it was run: as §1

NCI-H2342 = system: NCI-H2342
How it was run: as §1

LXF-289 = system: LXF-289
How it was run: as §1

NCI-H2023 = system: NCI-H2023
How it was run: as §1

HCC-366 = system: HCC-366
How it was run: as §1

LK-2 = system: LK-2
How it was run: as §1

PC-14 = system: PC-14
How it was run: as §1

HCC-15 = system: HCC-15
How it was run: as §1

NCI-H647 = system: NCI-H647
How it was run: as §1

COR-L 105 = system: COR-L 105
How it was run: as §1

COR-L23 = system: COR-L23
How it was run: as §1

NCI-H838 = system: NCI-H838
How it was run: as §1

HOP-62 = system: HOP-62
How it was run: as §1

NCI-H2085 = system: NCI-H2085
How it was run: as §1

CAL-12T = system: CAL-12T
How it was run: as §1

NCI-H522 = system: NCI-H522
How it was run: as §1

LC-2-ad = system: LC-2-ad
How it was run: as §1

NCI-H1944 = system: NCI-H1944
How it was run: as §1

SMILES: C=C1C(=O)O[C@@H](CCCCCCCC)[C@@H]1C(=O)O [C-75] + O=C(CCCCCCC(=O)Nc1ccccc1)NO [Vorinostat] (partner 1 µM)
- relative viability (NCI-H1975; first compound 0.08 µM): 0.757
- relative viability (NCI-H1975; first compound 0.253 µM): 0.733
- relative viability (NCI-H1975; first compound 0.8 µM): 0.761
- relative viability (NCI-H1975; first compound 2.53 µM): 0.718
- relative viability (NCI-H1975; first compound 8 µM): 0.742
- relative viability (SW 900; first compound 0.08 µM): 0.669
- relative viability (SW 900; first compound 0.253 µM): 0.824
- relative viability (SW 900; first compound 0.8 µM): 0.47
- relative viability (SW 900; first compound 2.53 µM): 0.395
- relative viability (SW 900; first compound 8 µM): 0.49
- relative viability (LU99A; first compound 0.08 µM): 0.476
- relative viability (LU99A; first compound 0.253 µM): 0.549
- relative viability (LU99A; first compound 0.8 µM): 0.413
- relative viability (LU99A; first compound 2.53 µM): 0.552
- relative viability (LU99A; first compound 8 µM): 0.495
- relative viability (HARA; first compound 0.08 µM): 0.598
- relative viability (HARA; first compound 0.253 µM): 0.258
- relative viability (HARA; first compound 0.8 µM): 0.415
- relative viability (HARA; first compound 2.53 µM): 0.537
- relative viability (HARA; first compound 8 µM): 0.438
- relative viability (HCC-827; first compound 0.253 µM): 0.662
- relative viability (HCC-827; first compound 0.8 µM): 0.721
- relative viability (HCC-827; first compound 8 µM): 0.88
- relative viability (HCC-44; first compound 0.08 µM): 1.1
- relative viability (HCC-44; first compound 0.253 µM): 0.994
- relative viability (HCC-44; first compound 0.8 µM): 1.07
- relative viability (HCC-44; first compound 2.53 µM): 1.13
- relative viability (HCC-44; first compound 8 µM): 1.07
- relative viability (NCI-H2342; first compound 0.08 µM): 0.695
- relative viability (NCI-H2342; first compound 0.253 µM): 0.728
- relative viability (NCI-H2342; first compound 0.8 µM): 0.71
- relative viability (NCI-H2342; first compound 2.53 µM): 0.727
- relative viability (NCI-H2342; first compound 8 µM): 0.736
- relative viability (LXF-289; first compound 0.08 µM): 0.716
- relative viability (LXF-289; first compound 0.253 µM): 0.927
- relative viability (LXF-289; first compound 0.8 µM): 0.742
- relative viability (LXF-289; first compound 2.53 µM): 0.781
- relative viability (LXF-289; first compound 8 µM): 0.749
- relative viability (NCI-H2023; first compound 0.08 µM): 0.653
- relative viability (NCI-H2023; first compound 0.253 µM): 0.944
- relative viability (NCI-H2023; first compound 0.8 µM): 0.604
- relative viability (NCI-H2023; first compound 2.53 µM): 0.6
- relative viability (NCI-H2023; first compound 8 µM): 0.37
- relative viability (HCC-366; first compound 0.08 µM): 0.409
- relative viability (HCC-366; first compound 0.253 µM): 0.399
- relative viability (HCC-366; first compound 0.8 µM): 0.256
- relative viability (HCC-366; first compound 2.53 µM): 0.269
- relative viability (HCC-366; first compound 8 µM): 0.301
- relative viability (LK-2; first compound 0.08 µM): 0.387
- relative viability (LK-2; first compound 0.253 µM): 0.315
- relative viability (LK-2; first compound 0.8 µM): 0.319
- relative viability (LK-2; first compound 2.53 µM): 0.286
- relative viability (LK-2; first compound 8 µM): 0.324
- relative viability (PC-14; first compound 0.08 µM): 0.721
- relative viability (PC-14; first compound 0.253 µM): 0.741
- relative viability (PC-14; first compound 0.8 µM): 0.63
- relative viability (PC-14; first compound 2.53 µM): 0.61
- relative viability (PC-14; first compound 8 µM): 0.717
- relative viability (HCC-15; first compound 0.08 µM): 0.831
- relative viability (HCC-15; first compound 0.253 µM): 0.918
- relative viability (HCC-15; first compound 0.8 µM): 0.838
- relative viability (HCC-15; first compound 2.53 µM): 0.862
- relative viability (HCC-15; first compound 8 µM): 0.835
- relative viability (NCI-H647; first compound 0.08 µM): 0.47
- relative viability (NCI-H647; first compound 0.253 µM): 0.873
- relative viability (NCI-H647; first compound 0.8 µM): 0.638
- relative viability (NCI-H647; first compound 2.53 µM): 0.464
- relative viability (NCI-H647; first compound 8 µM): 0.486
- relative viability (COR-L 105; first compound 0.08 µM): 0.906
- relative viability (COR-L 105; first compound 0.253 µM): 0.826
- relative viability (COR-L 105; first compound 0.8 µM): 0.895
- relative viability (COR-L 105; first compound 2.53 µM): 0.859
- relative viability (COR-L 105; first compound 8 µM): 0.813
- relative viability (COR-L23; first compound 0.08 µM): 0.507
- relative viability (COR-L23; first compound 0.253 µM): 0.408
- relative viability (COR-L23; first compound 0.8 µM): 0.446
- relative viability (COR-L23; first compound 2.53 µM): 0.37
- relative viability (COR-L23; first compound 8 µM): 0.327
- relative viability (NCI-H838; first compound 0.08 µM): 0.761
- relative viability (NCI-H838; first compound 0.253 µM): 0.669
- relative viability (NCI-H838; first compound 0.8 µM): 0.726
- relative viability (NCI-H838; first compound 2.53 µM): 0.648
- relative viability (NCI-H838; first compound 8 µM): 0.663
- relative viability (HOP-62; first compound 0.08 µM): 0.563
- relative viability (HOP-62; first compound 0.253 µM): 0.834
- relative viability (HOP-62; first compound 0.8 µM): 0.629
- relative viability (HOP-62; first compound 2.53 µM): 0.478
- relative viability (HOP-62; first compound 8 µM): 0.449
- relative viability (NCI-H2085; first compound 0.08 µM): 0.801
- relative viability (NCI-H2085; first compound 0.253 µM): 0.749
- relative viability (NCI-H2085; first compound 0.8 µM): 0.752
- relative viability (NCI-H2085; first compound 2.53 µM): 0.664
- relative viability (NCI-H2085; first compound 8 µM): 0.738
- relative viability (CAL-12T; first compound 0.08 µM): 0.721
- relative viability (CAL-12T; first compound 0.253 µM): 1.12
- relative viability (CAL-12T; first compound 0.8 µM): 0.918
- relative viability (CAL-12T; first compound 2.53 µM): 0.674
- relative viability (CAL-12T; first compound 8 µM): 0.89
- relative viability (NCI-H522; first compound 0.08 µM): 0.912
- relative viability (NCI-H522; first compound 0.253 µM): 0.811
- relative viability (NCI-H522; first compound 0.8 µM): 0.905
- relative viability (NCI-H522; first compound 2.53 µM): 0.655
- relative viability (NCI-H522; first compound 8 µM): 0.868
- relative viability (LC-2-ad; first compound 0.08 µM): 0.72
- relative viability (LC-2-ad; first compound 0.253 µM): 0.717
- relative viability (LC-2-ad; first compound 0.8 µM): 0.681
- relative viability (LC-2-ad; first compound 2.53 µM): 0.689
- relative viability (LC-2-ad; first compound 8 µM): 0.666
- relative viability (NCI-H1944; first compound 0.08 µM): 0.571
- relative viability (NCI-H1944; first compound 0.253 µM): 0.591
- relative viability (NCI-H1944; first compound 0.8 µM): 0.475
- relative viability (NCI-H1944; first compound 2.53 µM): 0.42
- relative viability (NCI-H1944; first compound 8 µM): 0.483
